Common to all, as to assay type: cell-based
For assay [1], the system named is S. aureus HH 127. The assay is described as follows: MIC against S. aureus HH 127. The note with it: Staphylococcus aureus, HH127.
Assay [2] concerns S. aureus SK 23390. The assay is described as follows: MIC against S. aureus SK 23390. Particulars: Staphylococcus aureus, SK23390.
Assay [3] concerns Strep. pyog. C 203. Put plainly: MIC against Strep. pyog. C 203.
Assay [4] deals with Strep. faecalis HH 34358. Put plainly: MIC against Strep. faecalis HH 34358. Particulars: Enterococcus faecalis, HH34358.
Assay [5] deals with E. coli SK 12140. The assay is described as follows: MIC against E. coli SK 12140. The note with it: Escherichia coli, SK12140.
The test system of assay [6] is E. coli HH 33779. The assay is described as follows: MIC against E. coli HH 33779. The note with it: Escherichia coli, HH33779.
In assay [7] the test system is Kleb. pneumo. SK 4200. The assay is described as follows: MIC against Kleb. pneumo. SK 4200.
In assay [8] the test system is Kleb. pneumo. SK 1200. Put plainly: MIC against Kleb. pneumo. SK 1200.
The subject of assay [9] is Pseudo. sp. HH 63. The assay is described as follows: MIC against Pseudo. sp. HH 63.
Assay [10] concerns Salmonella ATCC 12176. The assay is described as follows: MIC against Salmonella ATCC 12176. The note with it: ATCC12176.
The subject of assay [11] is Shigella HH 112. The assay is described as follows: MIC against Shigella HH 112. The note with it: HH112.
For assay [12], the system named is Entero. aerog. ATCH 13048. The assay is described as follows: MIC against Entero. aerog. ATCH 13048.
Assay [13] deals with Entero. cloaca PaSL 969. The assay is described as follows: MIC against Entero. cloaca PaSL 969.
The subject of assay [14] is Serra. marc. ATCC 13880. The assay is described as follows: MIC against Serra. marc. ATCC 13880.
The test system of assay [15] is S. villaluz. Put plainly: MIC against S. villaluz.
Where [16] appears, read: E. coli SK 12140, read-out: MIC.
Where [17] appears, read: Salmonella ATCC 12176, read-out: MIC.

In brackets after ≈: the same amount, converted by molar mass. Like-named read-outs stand apart in the source and are kept apart here.

As a reminder, the MIC is the smallest concentration in the dilution series that meets the test's criterion for growth inhibition. In the case of `CC(=O)OCC1=C(C(=O)O)N2C(=O)C(NC(=O)CS(C)(=O)=O)C2SC1` (centres unmarked) [Compound 54293, 7-Methylsulfonylacetamidocephalosporanic acid], the MIC in assay [1] was determined as 3.1 µg/mL (≈ 7.9 µM); in [2], 1.6 µg/mL (≈ 4.08 µM); in [3], 0.4 µg/mL (≈ 1.02 µM); in assay [4] it was 200 µg/mL (≈ 510 µM); in assay [5] (setting [16]), 12.5 µg/mL (≈ 31.9 µM); in [6], 25 µg/mL (≈ 63.7 µM). Moreover, the minimal inhibitory concentration (MIC) was 12.5 µg/mL (≈ 31.9 µM) in assay [7]; 12.5 µg/mL (≈ 31.9 µM) in assay [8]; > 200 µg/mL in assay [9]; 12.5 µg/mL (≈ 31.9 µM) in [10] (setting [17]); 25 µg/mL (≈ 63.7 µM) in assay [11] (Shigella HH 112, read-out: MIC); > 200 µg/mL in assay [12]. The MIC in [13] was > 200 µg/mL.

On to `Cc1nnc(SCC2=C(C(=O)O)N3C(=O)C(NC(=O)CS(C)(=O)=O)[C@H]3SC2)s1` (some centres unmarked) [Compound 55848, 7-Methylsulfonylacetamido-3-(2-methyl-1,3,4-thiadiazol-5-ylthiomethyl)-3-cephem-4-carboxylic acid], for which the MIC in assay [1] turned out to be 1.6 µg/mL (≈ 3.44 µM); in [2] it was 1.6 µg/mL (≈ 3.44 µM); in assay [3], 0.2 µg/mL (≈ 0.431 µM); in [4] it was 50 µg/mL (≈ 108 µM); in [5], 12.5 µg/mL (≈ 26.9 µM); in assay [6] it was 25 µg/mL (≈ 53.8 µM). Also, the MIC was 3.1 µg/mL (≈ 6.67 µM) in [7]; 6.3 µg/mL (≈ 13.6 µM) in assay [8]; > 200 µg/mL in assay [9]; 3.1 µg/mL (≈ 6.67 µM) in assay [10] (setting [17]); 12.5 µg/mL (≈ 26.9 µM) in assay [11] (Shigella HH 112, read-out: MIC); > 200 µg/mL in [12]. The MIC in assay [13] was > 200 µg/mL.

In the case of `Cn1nnnc1SCC1=C(C(=O)O)N2C(=O)C(NC(=O)CS(C)(=O)=O)[C@H]2SC1` (some centres unmarked) [Compound 57286, 7-Methylsulfonylacetamido-3-(1-methyltetrazol-5-ylthiomethyl)-3-cephem-4-carboxylic acid], the MIC in assay [1] stood at 3.1 µg/mL (≈ 6.91 µM); in [2], 1.6 µg/mL (≈ 3.57 µM); in assay [3], 0.2 µg/mL (≈ 0.446 µM); in assay [4], 100 µg/mL (≈ 223 µM); in assay [5] (setting [16]) it was 3.1 µg/mL (≈ 6.91 µM); in assay [6], 12.5 µg/mL (≈ 27.9 µM). In addition, the minimal inhibitory concentration (MIC) in [7] was 1.6 µg/mL (≈ 3.57 µM); in [8] it was 3.1 µg/mL (≈ 6.91 µM); in assay [9], > 200 µg/mL; in assay [10] (setting [17]) it was 3.1 µg/mL (≈ 6.91 µM); in assay [11] (Shigella HH 112, read-out: MIC) it was 3.1 µg/mL (≈ 6.91 µM); in [12], > 200 µg/mL. Also, the MIC in [14] and in [13] was > 200 µg/mL in each case.

As for `CC(=O)OCC1=C(C(=O)O)N2C(=O)C(NC(=O)CS(=O)(=O)c3ccccc3)C2SC1` (centres unmarked) [Compound 57359, 7-Phenylsulfonylacetamidocephalosporanic acid], the MIC in assay [1] stood at 1.6 µg/mL (≈ 3.52 µM); in assay [2], 0.8 µg/mL (≈ 1.76 µM); in [3], 0.2 µg/mL (≈ 0.44 µM); in assay [4], 50 µg/mL (≈ 110 µM); in assay [5] (setting [16]) it was 50 µg/mL (≈ 110 µM); in [6], 100 µg/mL (≈ 220 µM). Moreover, the MIC was 12.5 µg/mL (≈ 27.5 µM) in assay [7]; 6.3 µg/mL (≈ 13.9 µM) in assay [8]; > 200 µg/mL in [9]; 12.5 µg/mL (≈ 27.5 µM) in [10] (setting [17]); 25 µg/mL (≈ 55 µM) in [11] (Shigella HH 112, read-out: MIC); > 200 µg/mL in [12]. For the same molecule, the MIC in assay [14] and in [13] was > 200 µg/mL in each case.

Consider `Cc1nnc(SCC2=C(C(=O)O)N3C(=O)C(NC(=O)CS(=O)(=O)c4ccccc4)[C@H]3SC2)s1` (some centres unmarked) [Compound 57360, 7-Phenylsulfonylacetamido-3-(2-methyl-1,3,4-thiadiazol-5-ylthiomethyl)-3-cephem-4-carboxylic acid], for which the MIC in assay [1] is 0.8 µg/mL (≈ 1.52 µM); in assay [2], 0.4 µg/mL (≈ 0.76 µM); in [3] it was 0.1 µg/mL (≈ 0.19 µM); in [4], 25 µg/mL (≈ 47.5 µM); in [5] (setting [16]), 25 µg/mL (≈ 47.5 µM); in assay [6], 100 µg/mL (≈ 190 µM). Moreover, the MIC was 25 µg/mL (≈ 47.5 µM) in [7]; 12.5 µg/mL (≈ 23.7 µM) in [8]; > 200 µg/mL in assay [9]; 25 µg/mL (≈ 47.5 µM) in [10] (setting [17]); 25 µg/mL (≈ 47.5 µM) in [11] (Shigella HH 112, read-out: MIC); > 200 µg/mL in assay [12]. In addition, the MIC in assay [14] and in assay [13] was > 200 µg/mL in each case.

In the case of `CC(=O)OCC1=C(C(=O)O)N2C(=O)C(NC(=O)CS(N)(=O)=O)C2SC1` (centres unmarked) [Compound 59393, 7-Aminosulfonylacetamidocephalosporanic acid], the MIC was found to be 1.6 µg/mL (≈ 4.07 µM) in assay [1]; 1.6 µg/mL (≈ 4.07 µM) in assay [2]; 0.1 µg/mL (≈ 0.254 µM) in [3]; 50 µg/mL (≈ 127 µM) in assay [4]; 50 µg/mL (≈ 127 µM) in assay [5] (setting [16]); 50 µg/mL (≈ 127 µM) in [6]. In addition, the MIC in assay [7] is 25 µg/mL (≈ 63.5 µM); in assay [8], 25 µg/mL (≈ 63.5 µM); in [9], > 200 µg/mL; in assay [10] (setting [17]), 12.5 µg/mL (≈ 31.8 µM); in assay [11] (Shigella HH 112, read-out: MIC) it was 25 µg/mL (≈ 63.5 µM); in [12], 200 µg/mL (≈ 508 µM). Moreover, the MIC was > 200 µg/mL in assay [14] and 100 µg/mL (≈ 254 µM) in assay [13].

As for `CCS(=O)(=O)CC(=O)NC1C(=O)N2C(C(=O)O)=C(COC(C)=O)CSC12` (centres unmarked) [Compound 59623, 7-Ethylsulfonylacetamidocephalosporanic acid], the minimum inhibitory concentration (MIC) in assay [1] stood at 0.8 µg/mL (≈ 1.97 µM); in assay [2], 0.8 µg/mL (≈ 1.97 µM); in assay [15], 100 µg/mL (≈ 246 µM); in [3] it was 0.1 µg/mL (≈ 0.246 µM); in assay [4], 100 µg/mL (≈ 246 µM); in assay [5] (setting [16]), 25 µg/mL (≈ 61.5 µM). For the same molecule, the MIC is 50 µg/mL (≈ 123 µM) in assay [6]; 6.3 µg/mL (≈ 15.5 µM) in [7]; 6.3 µg/mL (≈ 15.5 µM) in assay [8]; > 200 µg/mL in [9]; 3.1 µg/mL (≈ 7.63 µM) in [10] (setting [17]); 25 µg/mL (≈ 61.5 µM) in [11] (Shigella HH 112, read-out: MIC). Besides, the MIC was 200 µg/mL (≈ 492 µM) in assay [12] and > 200 µg/mL in assay [14].

Consider `CCS(=O)(=O)CC(=O)NC1C(=O)N2C(C(=O)O)=C(CSc3nnc(C)s3)CSC12` (centres unmarked) [Compound 59641, 7-Ethyldulfonylacetamido-3-(2-methyl-1,3,5-thiadiazol-5-yl-thiomethyl)-3-cephem-4-carboxylic acid], for which the MIC in assay [1] turned out to be 0.4 µg/mL (≈ 0.836 µM); in assay [2], 0.4 µg/mL (≈ 0.836 µM); in assay [3], 0.1 µg/mL (≈ 0.209 µM); in assay [4], 25 µg/mL (≈ 52.2 µM); in assay [5] (setting [16]), 3.1 µg/mL (≈ 6.48 µM); in [6], 12.5 µg/mL (≈ 26.1 µM). Besides, the MIC in assay [7] was 1.6 µg/mL (≈ 3.34 µM); in assay [8], 1.6 µg/mL (≈ 3.34 µM); in [9], > 200 µg/mL; in [10] (setting [17]) it was 1.6 µg/mL (≈ 3.34 µM); in assay [11] (Shigella HH 112, read-out: MIC), 6.3 µg/mL (≈ 13.2 µM); in assay [12], 100 µg/mL (≈ 209 µM). Besides, the MIC in [14] is > 200 µg/mL.

For the molecule `Cn1cnnc1SCC1=C(C(=O)O)N2C(=O)C(NC(=O)CS(C)(=O)=O)C2SC1` (centres unmarked) [Compound 59758], the minimum inhibitory concentration (MIC) in [1] was found to be 3.1 µg/mL (≈ 6.93 µM); in assay [2], 1.6 µg/mL (≈ 3.58 µM); in [15] it was 50 µg/mL (≈ 112 µM); in assay [3] it was 0.1 µg/mL (≈ 0.223 µM); in [4], 200 µg/mL (≈ 447 µM); in assay [5] (setting [16]), 6.3 µg/mL (≈ 14.1 µM). Further, the MIC was 12.5 µg/mL (≈ 27.9 µM) in assay [6]; 6.3 µg/mL (≈ 14.1 µM) in [7]; 6.3 µg/mL (≈ 14.1 µM) in assay [8]; > 200 µg/mL in assay [9]; 3.1 µg/mL (≈ 6.93 µM) in [10] (Salmonella); 0.1 µg/mL (≈ 0.223 µM) in assay [11] (Shigella). Also, the MIC in [12] and in assay [14] was > 200 µg/mL each time.

Regarding `Cn1c(SCC2=C(C(=O)O)N3C(=O)C(NC(=O)CS(C)(=O)=O)C3SC2)n[nH]c1=O` (centres unmarked) [Compound 59857], the MIC in [1] amounted to 1.6 µg/mL (≈ 3.45 µM); in assay [2], 1.6 µg/mL (≈ 3.45 µM); in assay [15], 25 µg/mL (≈ 53.9 µM); in [3], 0.2 µg/mL (≈ 0.431 µM); in [4] it was 100 µg/mL (≈ 216 µM); in [5] (setting [16]), 25 µg/mL (≈ 53.9 µM). In addition, the MIC in [6] was 50 µg/mL (≈ 108 µM); in assay [7], 6.3 µg/mL (≈ 13.6 µM); in assay [8] it was 6.3 µg/mL (≈ 13.6 µM); in [9], > 200 µg/mL; in [10] (setting [17]), 3.1 µg/mL (≈ 6.69 µM); in assay [11] (Shigella HH 112, read-out: MIC), 25 µg/mL (≈ 53.9 µM). Moreover, the MIC in assay [12] and in [14] was > 200 µg/mL throughout.

These data come from US3939266A, “Substituted sulfonylacetamido cephalosporins” (SmithKline Corporation, priority 1974, dated 1976).
